Reference: patent US20060024373A1, “Cross-linked hyaluronic acid-laminin gels and use thereof in cell culture and medical implants” (priority 2000, published 2006)

Key:
[1] = tested on: neuronal cells dissociated from brains of 14-16 days rat embryos; assay: Rat embryonic brain cells cultured in enriched HA-LN-gel with antioxidants / protective agents; assay type: cell-based; conditions: for most effective dose: agent added to enriched HA-LN-gel before culturing the cells, AA tested at 1 mM, 330 μM, 100 μM, NAC at 0.1, 1, 10 μM; for neuronal sprouting: first 24-48 hours of culture in the enriched gel, versus untreated control cultures
Experimental: Neuronal cells were manually dissociated from brains of 14-16 days rat embryos. Cells were embedded in the HA-LN-gel, which was enriched as described herein above. NAC and AA were obtained from SIGMA (Cat. No. 616-91-1 and […]; Lot 108H00575 and 096H02811, respectively). Pifithrin-α, cyclic (Calbiochem, Cat No. 506134, lot:B41595) is a very stable analog of pifithrin-α, with reduced cytotoxicity. NAC, AA and Pifithrin-α cyclic were added to the HA-LN-gel (enriched with neural growth factors) prior to culturing of cells. Culture medium was changed twice a week. All the experiments contained control cultures (without treatment of NAC or AA or Pifithrin-α. 5-7 experiments were performed in 12 wells, in triplicates. Dissociated brain cells were attached to DE53 cylindrical, positively charged microcarriers (MCs), and suspended in brain medium for 4-17 days ([…] 1990 Methods in Neur 2:195-209). The floating cell-MC aggregates were transferred (using fine spatula, under a stereo microscope) into HA-LN-gel enriched with the indicated growth factors or Antioxidants. During one month of daily observations the following differences (which were more pronounced in the stationary MC-cultures) were observed: […]

[2] = tested on: Endothelial cells (HUVEC); assay: Attachment and growth of endothelial cells on or in substrates and milieus; assay type: cell-based
Experimental: In order to test the ability of HA-LN-gel to support the attachment and growth of endothelial cells, several experiments were conducted:
Endothelial cells (HE4 split #1), grown on gelatin, were collected by 0.25% trypsin-EDTA digestion. HUVEC were counted and 1.35×10^6 cells were divided into treatment groups. The cells were seeded in triplicates into 12-well plates at a concentration of 50,000 cells per well. The treatment groups were as follows: • 1. Cells seeded on the plastic • 2. Cells seeded on gelatin coating • 3. Cells seeded on HA (1 ml)+medium (0.5 ml) coating. Each well was coated with ˜0.2 ml • 4. Cells (150,000) seeded in HA (1 ml)+medium (0.5 ml). 0.5 ml per well. • 5. Cells seeded on gelatin and after attachment (24 hours) covered with HA+medium (as above, coated with 0.5 ml per well) • 6. Cells seeded on Laminin coating • 7. Cells seeded on HA-LN-gel coating (0.9 ml HA, 0.1 ml Laminin, 0.4 ml medium). Coating was with ˜0.2 ml per well • 8. Cells (150,000) seeded in HA-LN-gel (as in g) • 9. Cells seeded on gelatin and after attachment (24 hours) covered with HA-LN-gel (as in g above)
The morphology of the seeded cells was monitored microscopically every day.
Therefore the above experiment was repeated using 10% of the laminin concentration. Endothelial were seeded in 12 well plates in triplicates (50000 cell/well) as follows: • 1. Cells on gelatin coating as control. • 2. Cells on HA-LN-gel (10% of the usual concentration of laminin) coating. • 3. Cells in HA-LN-gel (10% of the usual concentration of laminin) • 4. Higher concentration of cells (100,000/well) in HA-LN-gel (10% of the usual concentration of laminin).

Compound	effectiveness of the tested concentrations ([1]; 1 mM, 330 μM or 100 μM applied to the cell cultures)	most effective dose [1] [µM]	neuronal sprouting [1]	effectiveness compared between concentrations ([1]; 100 and 200 nM versus 2 μM)	morphology and attachment of cells seeded on the coating ([2]; 50,000 cells per well, 12-well plates, usual laminin concentration, monitored microscopically every day)	toxicity to endothelial cells as substrate coating ([2]; cells seeded on the coating)	toxic effects on EC, overall finding of first experiment ([2]; laminin alone or as a component of the HA-LN-gel, at the concentration examined)
O=C1O[C@H]([C@@H](O)CO)C(O)=C1O [Ascorbic acid]	effective	330	stimulated intensive sprouting	–	–	–	–
CC(=O)N[C@@H](CS)C(=O)O [N-acetyl-L-cysteine]	–	10	stimulated intensive sprouting	–	–	–	–
Cc1ccc(-c2cn3c4c(sc3n2)CCCC4)cc1 [Pifithrin-α, cyclic]	–	–	stimulated intensive sprouting	more effective	–	–	–
laminin: adhesive glycoprotein; Murine LN-1 obtained from Sigma	–	–	–	–	appeared round and did not attach well to the substrate	toxic	some toxic effects
